Assay results as given in article PMC6385671, “An integrated-molecular-beacon based multiple exponential strand displacement amplification strategy for ultrasensitive detection of DNA methyltransferase activity” (Chemical Science, 2018).

Molecular target: Dam MTase (Escherichia coli, UniProt P0AEE8)
Assay: coupled fluorescence assay (molecular beacon methylation, DpnI cleavage, strand displacement amplification) with commercial Dam MTase
Assay type: biochemical

Dam MTase, sequence (P0AEE8 whole entry): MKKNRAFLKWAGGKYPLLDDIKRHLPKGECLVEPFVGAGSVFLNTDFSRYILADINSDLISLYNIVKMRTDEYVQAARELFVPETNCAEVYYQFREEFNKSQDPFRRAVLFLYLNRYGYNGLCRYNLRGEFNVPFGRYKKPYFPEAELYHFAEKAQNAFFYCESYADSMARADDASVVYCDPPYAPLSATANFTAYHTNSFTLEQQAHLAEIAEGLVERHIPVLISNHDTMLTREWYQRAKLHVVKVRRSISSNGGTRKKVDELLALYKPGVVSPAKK

O=c1[nH]cc(F)c(=O)[nH]1 [5-fluorouracil]
IC50: 710 nM
